Source: US20030186898A1, “8- (C-beta-D-glucopyranosyl) -7, 3', 4' -trihydroxyflavone, process of isolation thereof, pharmaceutical composition and method for the treatment of diabetes” (priority 2002, published 2003)

System: 18 h. fasted Wistar rats
Experiment: hypoglycaemic activity in 18 h. fasted Wistar rats
Assay type: in vivo
Protocol: The compound 8-(C-β-D-glucopyranosyl)-7,3′,4′-trihydroxyflavone has been evaluated for hypoglycaemic activity in 18 h. fasted Wistar rats. […] The mean fall recorded was 24 mg/100 ml. blood, from initial mean of 92 to mean of 68 mg/100 ml. blood.

SMILES: O=c1cc(-c2ccc(O)c(O)c2)oc2c([C@@H]3O[C@H](CO)[C@@H](O)[C@H](O)[C@H]3O)c(O)ccc12 [8-(C-β-D-glucopyranosyl)-7,3′,4′-trihydroxyflavone]
- hypoglycaemic effect (10 mg/kg p. o.): hypoglycaemic effect was recorded in all the treated rats
- mean (blood sugar) after treatment (after 10 mg/kg p. o.): 68 mg/100 ml. blood
- initial mean (blood sugar) (before treatment with 10 mg/kg p. o.): 92 mg/100 ml. blood
- mean fall (blood sugar) (compound at 10 mg/kg p. o.): 24 mg/100 ml. blood
